Measurements taken from patent US9708316B2 (BRISTOL-MYERS SQUIBB COMPANY, priority 2014, dated 2017).

Tests used:
[1] = biological target: T1, HIS-TGFβR1 T204D (Homo sapiens, UniProt P36897, T204D); assay: HTRF probe-displacement assay, HIS-TGFβR1 T204D; assay type: binding; settings: read-out: TGFβR1 (μM) IC50
T1 sequence (P36897 34-503 T204D): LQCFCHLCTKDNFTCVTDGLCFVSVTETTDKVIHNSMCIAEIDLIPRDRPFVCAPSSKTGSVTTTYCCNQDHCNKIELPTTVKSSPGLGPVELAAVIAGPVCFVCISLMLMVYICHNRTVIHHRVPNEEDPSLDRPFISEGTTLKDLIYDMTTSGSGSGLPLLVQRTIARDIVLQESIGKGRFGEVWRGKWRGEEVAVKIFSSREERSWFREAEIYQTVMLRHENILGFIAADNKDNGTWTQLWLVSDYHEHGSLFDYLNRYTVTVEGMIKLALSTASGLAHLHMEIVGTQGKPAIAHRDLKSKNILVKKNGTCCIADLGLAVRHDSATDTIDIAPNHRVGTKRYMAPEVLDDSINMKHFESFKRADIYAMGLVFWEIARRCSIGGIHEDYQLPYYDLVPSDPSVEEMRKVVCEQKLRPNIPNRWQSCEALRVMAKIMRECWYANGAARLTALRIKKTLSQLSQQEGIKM

[2] = biological target: HIS-TGFβR2 WT (Homo sapiens, UniProt P37173); assay: HTRF probe-displacement assay, HIS-TGFβR2 WT; assay type: binding
Chain of HIS-TGFβR2 WT (P37173 23-567): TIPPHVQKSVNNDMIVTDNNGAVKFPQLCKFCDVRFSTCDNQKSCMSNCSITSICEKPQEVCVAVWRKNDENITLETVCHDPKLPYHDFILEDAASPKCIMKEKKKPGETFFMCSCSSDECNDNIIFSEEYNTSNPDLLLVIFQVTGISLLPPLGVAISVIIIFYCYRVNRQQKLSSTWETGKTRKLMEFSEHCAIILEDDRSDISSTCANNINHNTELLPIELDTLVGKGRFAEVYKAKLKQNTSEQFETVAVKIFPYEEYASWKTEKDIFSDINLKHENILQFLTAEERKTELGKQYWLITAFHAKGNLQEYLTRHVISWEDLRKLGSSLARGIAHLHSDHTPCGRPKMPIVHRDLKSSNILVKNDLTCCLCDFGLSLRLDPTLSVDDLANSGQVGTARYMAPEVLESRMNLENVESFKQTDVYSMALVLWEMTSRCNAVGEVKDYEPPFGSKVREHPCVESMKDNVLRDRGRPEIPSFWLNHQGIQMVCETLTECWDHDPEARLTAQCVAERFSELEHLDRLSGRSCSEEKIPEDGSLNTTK

Structure (SMILES): COCCOc1cnc2c(-c3ccc(OC)cn3)c(-c3ccnc(NC(C)=O)c3)[nH]c2c1 [Example 95, N-(4-(6-(2-Methoxyethoxy)-3-(5-methoxypyridin-2-yl)-1H-pyrrolo[3,2-b]pyridin-2-yl)pyridin-2-yl)acetamide]
- IC50 [1]: 0.002 µM
- IC50 [2]: > 15 µM

Structure (SMILES): CCOc1cnc2c(-c3ccc(OC)cn3)c(-c3ccnc(NC(C)=O)c3)[nH]c2c1 [Example 96, N-(4-(6-Ethoxy-3-(5-methoxypyridin-2-yl)-1H-pyrrolo[3,2-b]pyridin-2-yl)pyridin-2-yl)acetamide]
- IC50 [1]: 0.001 µM
- IC50 [2]: > 15 µM

Structure (SMILES): COCC(C)Oc1cnc2c(-c3ccc(OC)cn3)c(-c3ccnc(NC(C)=O)c3)[nH]c2c1 (centres unmarked) [Example 97, N-(4-(6-((1-Methoxypropan-2-yl)oxy)-3-(5-methoxypyridin-2-yl)-1H-pyrrolo[3,2-b]pyridin-2-yl)pyridin-2-yl)acetamide]
- IC50 [1]: 0.001 µM
- IC50 [2]: > 15 µM

Structure (SMILES): COc1ccc(-c2c(-c3ccnc(NC(C)=O)c3)[nH]c3cc(OC4COC4)cnc23)nc1 [Example 98, N-(4-(3-(5-Methoxypyridin-2-yl)-6-(oxetan-3-yloxy)-1H-pyrrolo[3,2-b]pyridin-2-yl)pyridin-2-yl)acetamide]
- IC50 [1]: 0.002 µM
- IC50 [2]: > 15 µM

Structure (SMILES): [2H]C([2H])([2H])Oc1ccc(-c2c(-c3ccnc(NC(C)=O)c3)[nH]c3cc(Cl)cnc23)nc1 [Example 105, N-(4-(6-Chloro-3-(5-(methoxy-d3)pyridin-2-yl)-1H-pyrrolo[3,2-b]pyridin-2-yl)pyridin-2-yl)acetamide]
- IC50 [1]: 0.005 µM
- IC50 [2]: > 15 µM

Structure (SMILES): CC(=O)Nc1cc(-c2[nH]c3cccnc3c2-c2nc(C)ccc2F)ccn1 [Example 107, N-(4-(3-(3-Fluoro-6-methylpyridin-2-yl)-1H-pyrrolo[3,2-b]pyridin-2-yl)pyridin-2-yl)acetamide]
- IC50 [1]: 0.001 µM
- IC50 [2]: 8.14 µM

Structure (SMILES): CC(=O)Nc1cc(-c2[nH]c3cccnc3c2-c2ccc(C(F)F)cn2)ccn1 [Example 108, N-(4-(3-(5-(Difluoromethyl)pyridin-2-yl)-1H-pyrrolo[3,2-b]pyridin-2-yl)pyridin-2-yl)acetamide]
- IC50 [1]: 0.145 µM
- IC50 [2]: > 15 µM

Structure (SMILES): COc1cnc2c(-c3ccc(C(F)F)cn3)c(-c3ccnc(NC(C)=O)c3)[nH]c2c1 [Example 110, N-(4-(3-(5-(Difluoromethyl)pyridin-2-yl)-6-methoxy-1H-pyrrolo[3,2-b]pyridin-2-yl)pyridin-2-yl)acetamide]
- IC50 [1]: 0.053 µM
- IC50 [2]: > 15 µM

Structure (SMILES): COc1cnc2c(-c3nc(C)ccc3F)c(-c3ccnc(NC(C)=O)c3)[nH]c2c1 [Example 111, N-(4-(3-(3-Fluoro-6-methylpyridin-2-yl)-6-methoxy-1H-pyrrolo[3,2-b]pyridin-2-yl)pyridin-2-yl)acetamide]
- IC50 [1]: 0.002 µM
- IC50 [2]: 2.42 µM

Structure (SMILES): [2H]C([2H])([2H])Oc1ccc(-c2c(-c3ccnc(NC(C)=O)c3)[nH]c3cc(OC)cnc23)nc1 [Example 112, N-(4-(6-Methoxy-3-(5-(methoxy-d3)pyridin-2-yl)-1H-pyrrolo[3,2-b]pyridin-2-yl)pyridin-2-yl)acetamide]
- IC50 [1]: 0.001 µM
- IC50 [2]: 8.75 µM

Structure (SMILES): COc1cnc2c(-c3ccc(OC(F)F)cn3)c(-c3ccnc(NC(C)=O)c3)[nH]c2c1 [Example 113, N-(4-(3-(5-(Difluoromethoxy)pyridin-2-yl)-6-methoxy-1H-pyrrolo[3,2-b]pyridin-2-yl)pyridin-2-yl)acetamide]
- IC50 [1]: 0.003 µM
- IC50 [2]: 14.6 µM

Structure (SMILES): CC(=O)Nc1cc(-c2c(-c3cccc(C(F)F)n3)c3ncccc3n2CC(N)=O)ccn1 [Example 114, 2-(2-(2-Acetamidopyridin-4-yl)-3-(6-(difluoromethyl)pyridin-2-yl)-1H-pyrrolo[3,2-b]pyridin-1-yl)acetamide]
- IC50 [1]: 0.55 µM
- IC50 [2]: > 15 µM

Structure (SMILES): COc1ccc(-c2c(-c3ccnc(NC(=O)CN(C)C)c3)[nH]c3cc(OC)cnc23)nc1 [Example 115, 2-(Dimethylamino)-N-{4-[6-methoxy-3-(5-methoxypyridin-2-yl)-1H-pyrrolo[3,2-b]pyridin-2-yl]pyridin-2-yl}acetamide]
- IC50 [1]: 0.001 µM
- IC50 [2]: 8.68 µM

Structure (SMILES): COc1cnc2c(-c3cccc(C)n3)c(-c3ccnc(NC(=O)CN(C)C)c3)[nH]c2c1 [Example 116, 2-(Dimethylamino)-N-{4-[6-methoxy-3-(6-methylpyridin-2-yl)-1H-pyrrolo[3,2-b]pyridin-2-yl]pyridin-2-yl}acetamide]
- IC50 [1]: 0.005 µM
- IC50 [2]: 7.35 µM

Structure (SMILES): COc1cnc2c(-c3cccc(C(F)F)n3)c(-c3ccnc(NC(=O)CN(C)C)c3)[nH]c2c1 [Example 117, N-(4-{3-[6-(Difluoromethyl)pyridin-2-yl]-6-methoxy-1H-pyrrolo[3,2-b]pyridin-2-yl}pyridin-2-yl)-2-(dimethylamino)acetamide]
- IC50 [1]: 0.003 µM
- IC50 [2]: 11.3 µM

Structure (SMILES): COc1ccc(-c2c(-c3ccnc(NC(=O)CN4CCS(=O)(=O)CC4)c3)[nH]c3cc(OC)cnc23)nc1 [Example 118, 2-(1,1-Dioxidothiomorpholino)-N-{4-[6-methoxy-3-(5-methoxypyridin-2-yl)-1H-pyrrolo[3,2-b]pyridin-2-yl]pyridin-2-yl}acetamide]
- IC50 [1]: 0.002 µM
- IC50 [2]: > 15 µM

Structure (SMILES): COc1ccc(-c2c(-c3ccnc(NC(=O)CN4CCN(C)CC4)c3)[nH]c3cc(OC)cnc23)nc1 [Example 119, N-{4-[6-Methoxy-3-(5-methoxypyridin-2-yl)-1H-pyrrolo[3,2-b]pyridin-2-yl]pyridin-2-yl}-2-(4-methylpiperazin-1-yl)acetamide]
- IC50 [1]: < 0.001 µM
- IC50 [2]: > 15 µM

Structure (SMILES): COc1ccc(-c2c(-c3ccnc(NC(=O)CN4CCN(CCO)CC4)c3)[nH]c3cc(OC)cnc23)nc1 [Example 120, 2-[4-(2-Hydroxyethyl)piperazin-1-yl]-N-{4-[6-methoxy-3-(5-methoxypyridin-2-yl)-1H-pyrrolo[3,2-b]pyridin-2-yl]pyridin-2-yl}acetamide]
- IC50 [1]: 0.001 µM
- IC50 [2]: > 15 µM

Structure (SMILES): COc1ccc(-c2c(-c3ccnc(NC(=O)CN4CC[C@H](O)C4)c3)[nH]c3cc(OC)cnc23)nc1 [Example 121, 2-[(3S)-3-Hydroxypyrrolidin-1-yl]-N-{4-[6-methoxy-3-(5-methoxypyridin-2-yl)-1H-pyrrolo[3,2-b]pyridin-2-yl]pyridin-2-yl}acetamide]
- IC50 [1]: 0.001 µM
- IC50 [2]: > 15 µM

Structure (SMILES): COc1cnc2c(-c3cccc(C)n3)c(-c3ccnc(NC(=O)CN4CCN(CCO)CC4)c3)[nH]c2c1 [Example 122, 2-[4-(2-Hydroxyethyl)piperazin-1-yl]-N-{4-[6-methoxy-3-(6-methy 1pyridin-2-yl)-1H-pyrrolo[3,2-b]pyridin-2-yl]pyridin-2-yl}acetamide]
- IC50 [1]: 0.001 µM
- IC50 [2]: > 15 µM

Structure (SMILES): COc1cnc2c(-c3cccc(C(F)F)n3)c(-c3ccnc(NC(=O)CN4CCN(CCO)CC4)c3)[nH]c2c1 [Example 123, N-(4-{3-[6-(Difluoromethyl)pyridin-2-yl]-6-methoxy-1H-pyrrolo[3,2-b]pyridin-2-yl}pyridin-2-yl)-2-[4-(2-hydroxyethyl)piperazin-1-yl]acetamide]
- IC50 [1]: < 0.001 µM
- IC50 [2]: > 15 µM

Structure (SMILES): COC(=O)Nc1cc(-c2[nH]c3cc(OC)cnc3c2-c2ccc(OC)cn2)ccn1 [Example 124, Methyl N-{4-[6-methoxy-3-(5-methoxypyridin-2-yl)-1H-pyrrolo[3,2-b]pyridin-2-yl]pyridin-2-yl}carbamate]
- IC50 [1]: 0.001 µM
- IC50 [2]: 12.8 µM

Structure (SMILES): CCOc1ccnc2c(-c3cccc(C(F)F)n3)c(-c3ccnc(NC(C)=O)c3)[nH]c12 [Example 125, N-(4-{3-[6-(Difluoromethyl)pyridin-2-yl]-7-ethoxy-1H-pyrrolo[3,2-b]pyridin-2-yl}pyridin-2-yl)acetamide]
- IC50 [1]: 0.003 µM
- IC50 [2]: > 15 µM

Structure (SMILES): CC(=O)Nc1cc(-c2[nH]c3c(OCCN4CCCC4)ccnc3c2-c2cccc(C(F)F)n2)ccn1 [Example 126, N-(4-{3-[6-(Difluoromethyl)pyridin-2-yl]-7-[2-(pyrrolidin-1-yl)ethoxy]-1H-pyrrolo[3,2-b]pyridin-2-yl}pyridin-2-yl)acetamide]
- IC50 [1]: 0.009 µM
- IC50 [2]: > 15 µM

Structure (SMILES): C=Cc1ccnc2c(-c3cccc(C(F)F)n3)c(-c3ccnc(NC(C)=O)c3)[nH]c12 [Example 127, N-(4-{3-[6-(Difluoromethyl)pyridin-2-yl]-7-ethenyl-1H-pyrrolo[3,2-b]pyridin-2-yl}pyridin-2-yl)acetamide]
- IC50 [1]: 0.001 µM
- IC50 [2]: 6.65 µM

Structure (SMILES): CC(=O)Nc1cc(-c2[nH]c3c(-c4ccnn4C)ccnc3c2-c2cccc(C(F)F)n2)ccn1 [Example 129, N-(4-{3-[6-(Difluoromethyl)pyridin-2-yl]-7-(1-methyl-1H-pyrazol-5-yl)-1H-pyrrolo[3,2-b]pyridin-2-yl}pyridin-2-yl)acetamide]
- IC50 [1]: 0.007 µM
- IC50 [2]: > 15 µM

Structure (SMILES): CC(=O)Nc1cc(-c2[nH]c3c(-c4c(C)noc4C)ccnc3c2-c2cccc(C(F)F)n2)ccn1 [Example 130, N-(4-{3-[6-(Difluoromethyl)pyridin-2-yl]-7-(dimethyl-1,2-oxazol-4-yl)-1H-pyrrolo[3,2-b]pyridin-2-yl}pyridin-2-yl)acetamide]
- IC50 [1]: 0.004 µM
- IC50 [2]: > 15 µM

Structure (SMILES): COCCCc1ccnc2c(-c3cccc(C(F)F)n3)c(-c3ccnc(NC(C)=O)c3)[nH]c12 [Example 131, N-(4-{3-[6-(Difluoromethyl)pyridin-2-yl]-7-(3-methoxypropyl)-1H-pyrrolo[3,2-b]pyridin-2-yl}pyridin-2-yl)acetamide]
- IC50 [1]: 0.001 µM
- IC50 [2]: 3.84 µM
